Measured values published in patent US6479435B1, “Diaryl ethers and processes for their preparation and herbicidal and desiccant compositions containing them” (ISK Americas Incorporated, priority 1997, dated 2002).

Columns and labels:
Format in all cases: in vivo
[1] = system: ivyleaf morningglory (Ipomoea hederacea, IPOHE); test: Pre-emerge greenhouse herbicide test, phytotoxicity rating; conditions: 14 days after application, rating scale 0-100
How it was run: (§1)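 Seeds sown in sandy loam mix one day before track-sprayer application of compounds in acetone at 125–1000 g ai/ha (187 l/ha), then surface-watered to incorporate and bottom-watered. Visual rating 14 days after application on a 0–100 scale (0 = no damage, 100 = all plants dead).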

[2] = system: sicklepod (Cassia obtusifolia, CASOB); test: as above; conditions: 14 days after application, rating scale 0-100
How it was run: as §1

[3] = system: redroot pigweed (Amaranthus retroflexus, AMARE); test: as above; conditions: 14 days after application, rating scale 0-100
How it was run: as §1

[4] = system: Johnsongrass (Sorghum halepense, SORHA); test: as above; conditions: 14 days after application, rating scale 0-100
How it was run: as §1

[5] = system: barnyardgrass (Echinochloa crusgalli, ECHCG); test: as above; conditions: 14 days after application, rating scale 0-100
How it was run: as §1

[6] = system: large crabgrass (Digitaria sanguinalis, DIGSA); test: as above; conditions: 14 days after application, rating scale 0-100
How it was run: as §1

[7] = system: lambsquarters (Chenopodium album, CHEAL); test: as above; conditions: 14 days after application, rating scale 0-100
How it was run: as §1

[8] = system: green foxtail (Setaria viridis, SETVI); test: as above; conditions: 14 days after application, rating scale 0-100
How it was run: as §1

[9] = system: common ragweed (Ambrosia artemisiifolia L., AMBEL); test: as above; conditions: 14 days after application, rating scale 0-100
How it was run: as §1

[10] = system: velvetleaf (Abutilon theophrasti, ABUTH); test: as above; conditions: 14 days after application, rating scale 0-100
How it was run: as §1

[11] = system: upland rice (Oryza sp., var.Tebonnet, RICE); test: Post-emerge greenhouse test, crop damage rating; conditions: 14 days after application, scale 0-100
How it was run: (§2)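 Compounds in acetone with 0.25% v/v non-ionic surfactant were track-sprayed at 187 l/ha over plants at the 2-3 leaf stage, at 63 to 1000 g ai/ha. Pots were bottom-watered. Injury was scored visually 14 days later on a 0-100 scale, where 0 is no damage and 100 is complete plant death.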

[12] = system: field corn (Zea mays L., var. Dekalb 535, CORN); test: Post-emerge greenhouse test, crop damage rating; conditions: 14 days after application, scale 0-100
How it was run: as §2

[13] = system: upland rice (Oryza sp., var.Tebonnet, RICE); test: Pre-emerge greenhouse test, crop damage rating; conditions: 14 days after application, rating scale 0-100
How it was run: as §1

[14] = system: field corn (Zea mays L., var. Dekalb 535, CORN); test: Pre-emerge greenhouse test, crop damage rating; conditions: 14 days after application, rating scale 0-100
How it was run: as §1

[15] = system: soybean (Glycine max L., var. Pella 86, SOY); test: Pre-emerge greenhouse test, crop damage rating; design: key to SOY crop damage rating: 0 = no damage, 100 = complete death of all plants; conditions: 14 days after application, rating scale 0-100
How it was run: as §1

[16] = system: common ragweed (Ambrosia artemisiifolia L., AMBEL); test: Post-emerge greenhouse herbicide test, phytotoxicity rating; conditions: 14 days after application, scale 0-100
How it was run: as §2

[17] = system: soybean (Glycine max L., var. Pella 86, SOY); test: Post-emerge greenhouse test, crop damage rating; design: key to crop damage rating SOY: 0-100 scale: 0 = no damage, 100 = complete death of all plants; conditions: 14 days after application, scale 0-100
How it was run: as §2

[18] = system: ivyleaf morningglory (Ipomoea hederacea, IPOHE); test: Post-emerge greenhouse herbicide test, phytotoxicity rating; conditions: 14 days after application, scale 0-100
How it was run: as §2

[19] = system: sicklepod (Cassia obtusifolia, CASOB); test: as above; conditions: 14 days after application, scale 0-100
How it was run: as §2

[20] = system: redroot pigweed (Amaranthus retroflexus, AMARE); test: as above; conditions: 14 days after application, scale 0-100
How it was run: as §2

[21] = system: Johnsongrass (Sorghum halepense, SORHA); test: as above; conditions: 14 days after application, scale 0-100
How it was run: as §2

[22] = system: barnyardgrass (Echinochloa crusgalli, ECHCG); test: as above; conditions: 14 days after application, scale 0-100
How it was run: as §2

[23] = system: large crabgrass (Digitaria sanguinalis, DIGSA); test: as above; conditions: 14 days after application, scale 0-100
How it was run: as §2

[24] = system: lambsquarters (Chenopodium album, CHEAL); test: as above; conditions: 14 days after application, scale 0-100
How it was run: as §2

[25] = system: green foxtail (Setaria viridis, SETVI); test: as above; conditions: 14 days after application, scale 0-100
How it was run: as §2

[26] = system: velvetleaf (Abutilon theophrasti, ABUTH); test: as above; conditions: 14 days after application, scale 0-100
How it was run: as §2

CCOC(=O)C(C)Oc1cc([N+](=O)[O-])c(Oc2cc(-n3c(=O)n4n(c3=S)CCCC4)c(F)cc2Cl)cc1Cl (stereo not shown) [Compound 8-38]
IPOHE phytotoxicity rating ([1]; Rate 125 g al/ha): 0
IPOHE phytotoxicity rating ([1]; Rate 250 g al/ha): 30
CASOB phytotoxicity rating ([2]; Rate 125 g al/ha): 0
CASOB phytotoxicity rating ([2]; Rate 250 g al/ha): 0
AMARE phytotoxicity rating ([3]; Rate 125 g al/ha): 30
AMARE phytotoxicity rating ([3]; Rate 250 g al/ha): 80
SORHA phytotoxicity rating ([4]; Rate 125 g al/ha): 0
SORHA phytotoxicity rating ([4]; Rate 250 g al/ha): 0
ECHCG phytotoxicity rating ([5]; Rate 125 g al/ha): 0
ECHCG phytotoxicity rating ([5]; Rate 250 g al/ha): 0
DIGSA phytotoxicity rating ([6]; Rate 125 g al/ha): 0
DIGSA phytotoxicity rating ([6]; Rate 250 g al/ha): 0
CHEAL phytotoxicity rating ([7]; Rate 125 g al/ha): 80
CHEAL phytotoxicity rating ([7]; Rate 250 g al/ha): 90
SETVI phytotoxicity rating ([8]; Rate 125 g al/ha): 0
SETVI phytotoxicity rating ([8]; Rate 250 g al/ha): 70
AMBEL phytotoxicity rating ([9]; Rate 125 g al/ha): 0
AMBEL phytotoxicity rating ([9]; Rate 250 g al/ha): 0
ABUTH phytotoxicity rating ([10]; Rate 125 g al/ha): 100
ABUTH phytotoxicity rating ([10]; Rate 250 g al/ha): 100
crop damage rating RICE ([11]; rate 63 g ai/ha): 20
crop damage rating RICE ([11]; rate 250 g ai/ha): 50
crop damage rating CORN ([12]; rate 63 g ai/ha): 0
crop damage rating CORN ([12]; rate 250 g ai/ha): 20
RICE crop damage rating ([13]; Rate 125 g al/ha): 0
RICE crop damage rating ([13]; Rate 250 g al/ha): 0
CORN crop damage rating ([14]; Rate 125 g al/ha): 0
CORN crop damage rating ([14]; Rate 250 g al/ha): 0
SOY crop damage rating ([15]; Rate 125 g al/ha): 0
SOY crop damage rating ([15]; Rate 250 g al/ha): 0
phytotoxicity rating AMBEL ([16]; rate 63 g ai/ha): 20
phytotoxicity rating AMBEL ([16]; rate 250 g ai/ha): 50
crop damage rating SOY ([17]; rate 63 g ai/ha): 10
crop damage rating SOY ([17]; rate 250 g ai/ha): 20
phytotoxicity rating IPOHE ([18]; rate 63 g ai/ha): 40
phytotoxicity rating IPOHE ([18]; rate 250 g ai/ha): 100
phytotoxicity rating CASOB ([19]; rate 63 g ai/ha): 30
phytotoxicity rating CASOB ([19]; rate 250 g ai/ha): 30
phytotoxicity rating AMARE ([20]; rate 63 g ai/ha): 60
phytotoxicity rating AMARE ([20]; rate 250 g ai/ha): 70
phytotoxicity rating SORHA ([21]; rate 63 g ai/ha): 0
phytotoxicity rating SORHA ([21]; rate 250 g ai/ha): 0
phytotoxicity rating ECHCG ([22]; rate 63 g ai/ha): 0
phytotoxicity rating ECHCG ([22]; rate 250 g ai/ha): 0
phytotoxicity rating DIGSA ([23]; rate 63 g ai/ha): 0
phytotoxicity rating DIGSA ([23]; rate 250 g ai/ha): 0
phytotoxicity rating CHEAL ([24]; rate 63 g ai/ha): 40
phytotoxicity rating CHEAL ([24]; rate 250 g ai/ha): 50
phytotoxicity rating SETVI ([25]; rate 63 g ai/ha): 0
phytotoxicity rating SETVI ([25]; rate 250 g ai/ha): 20
phytotoxicity rating ABUTH ([26]; rate 63 g ai/ha): 100
phytotoxicity rating ABUTH ([26]; rate 250 g ai/ha): 00
